According to patent US20260224714A1, “CYCLING LYSOSOMAL TARGETING ANTIBODY CONJUGATES” (Lycia Therapeutics, Inc., priority 2023, published 2026):

How the values were obtained:
Type in all cases: cell-based
[1] = system: Alexa Fluor647 labelled human IgE; test: Uptake assay: internalization of Alexa Fluor 647 labelled IgE in wild type HepG2 cells (Example 6); details: equimolar conjugate and AF647 IgE, 2 hours, median cellular AF647 intensity by flow cytometry, normalized to unconjugated parent protein
Description: (§1) The following experiments were performed with HepG2 hepatocellular carcinoma cells, grown in Eagle's Minimal Essential Media (EMEM) supplemented with 10% FBS and penicillin/streptomycin.
(§2) HepG2 cells (25,000) were plated in 96-well plates 48 hours before the experiment was performed. On the day of the experiment, indicated the conjugate was mixed with an equimolar stock of Alexa Fluor647 labelled human IgE (Enzo Life Sciences, BPD-DIA-HE 1) in fresh EMEM as a 600 nM stock. The precomplexed conjugate:IgE mixture was incubated at room temperature for 30 minutes. During the precomplexing step, media from HepG2 was removed, and 40 ul of EMEM with 1/100 Fc Receptor Blocking Solution (Biolegend Human TruStain FcX, 422302) was added. Cells incubated in the receptor blocking solution for 10 minutes while making serial dilutions (1:3) of conjugate:IgE stock solution in EMEM. 40 ul of the conjugate:IgE mixture in EMEM was then added to cells (six dilutions, with final concentrations ranging from 300 nM to 1.23 nM) for 2 hours before washing with DPBS and detaching with 0.25% Trypsin/EDTA. Cells were pelleted in 96-well conical bottom plates, washed once with FACS Buffer with BSA (Rockland Immunochemicals), and resuspended in FACS Buffer with BSA. Uptake of fluorescently labelled IgE was measured by analyzing median cellular AF647 intensity by flow cytometry.
(§3) Cells were incubated with equimolar ratio of conjugate and AF647 IgE at indicated concentrations, with data normalized to unconjugated parent protein (Oma S35HWY57H-LC).

[2] = system: Alexa Fluor647 labelled human IgE; test: Uptake assay: internalization of Alexa Fluor 647 labelled IgE in ASGPR1/2 KO HepG2 cells (Example 6); details: equimolar conjugate and AF647 IgE, normalized to unconjugated parent protein
Description: as §1, §2, §3

[3] = system: LysoLight-labelled human IgE; test: Lysosomal degradation of LysoLight-labelled IgE in HepG2 cells, live cell imaging (Example 7); details: equimolar conjugate:LysoLight IgE, area under the curve of deep red fluorescence over three days, normalized to unconjugated parent protein
Description: as §1
HepG2 cells (15,000) were plated in 96-well plates 72 hours before performing the experiment. On the day of the experiment, indicated the conjugate was diluted in fresh EMEM and mixed with an equimolar stock of LysoLight-labelled human IgE (Enzo Life Sciences, BPD-DIA-HE1), at 200 nM of each compound. The precomplexed conjugate:IgE mixture was incubated at room temperature for 30 minutes. During the precomplexing step, media from HepG2 was removed, and 40 ul of EMEM with 1/100 Fc Receptor Blocking Solution (Biolegend Human TruStain FcX, 422302) was added. Cells incubated in the receptor blocking solution for 10 minutes while making serial dilutions (1:3) of conjugate:IgE stock solution in EMEM. 40 ul of the conjugate:IgE mixture in EMEM was then added to cells (five dilutions, with final concentrations ranging from 100 nM to 1.23 nM). Cells were placed in an IncuCyte Live-Cell Analysis System (Sartorius) for long term live cell imaging analysis (10× magnification, 3 images per well). One hour after addition of compound, image acquisition to measure red fluorescence from the LysoLight probe was started, with further Images collected every hour for 72 hours. Fluorescence of the LysoLight probe only occurs when cleaved by lysosomal cathepsin proteases, confirming lysosomal delivery and degradation of target. After 72 hours, mean red fluorescence was measured for each time point, and the area under the curve of fluorescence overtime was used to measure total degradation over the 3-day time period.

HepG2 cells = test: Externalization of conjugates from a cell following internalization (cycling), high-throughput format (Example 11); details: 50 nM conjugate 1 hour, stringent washes, Alexa Fluor 647-labelled a-human IgG 1 hour, FACS, normalized to unconjugated parent protein, average of two replicate wells
Description: as §1
The method was also adapted to a high-throughput format. In this assay, 25,000 HepG2 cells were plated in 96-well plates 48 hours before performing the experiment. The day of the experiment, cells were incubated with conjugate at indicated concentrations for 1 hour. Cells were then placed on ice to prevent trafficking/recycling during wash steps, and washed once with DPBS, once with sodium acetate buffer (20 mM, 150 mM NaCl, pH 5.2), once with Earle's Balanced Salt Solution (EBSS) adjusted to pH 2.5, and once again with DPBS, to remove conjugate from media and cell surface. Afterwards, 100 ul of prewarmed (to 37° C.) EMEM with 1 μg/ml of human a-IgG antibody conjugated to Alexa Fluor647 fluorophores was added to cells for 1 hour before washing with DPBS and detaching with 0.25% Trypsin/EDTA. Cells were pelleted in 96-well conical bottom plates, washed once with FACS Buffer with BSA (Rockland Immunochemicals), resuspended FACS Buffer with BSA and median AF647 intensity was analyzed by flow cytometry. The amount of conjugate capable of cycling to the cell surface (being externalized from the cell) and binding to the Alexa Fluor647 labelled α-IgG was measured by analyzing median cellular 647 fluorescence intensity by flow cytometry. […]. Reported values are the average of the values of two replicate wells.

human IgE = test: Degradation of initial and subsequent dose of target in HepG2 cells (Example 12, Table 30); details: normalized to unconjugated; for Normalized Fluorescence Post Wash Median Green: after wash, probe-conjugated IgE added for 4 hours, subsequent dose of target; for Normalized Fluorescence Precomplex Median Deep Red: precomplexed equimolar conjugate:IgE (cathepsin-cleavable quenched fluorescent probe) added for 2 hours, initial dose of target
Description: as §1
HepG2 cells (25,000) were plated in 96-well plates 48 hours before performing the experiment. On the day of the experiment, indicated conjugate was diluted in fresh EMEM as a 2× stock, and mixed with an equimolar stock of human IgE (Enzo Life Sciences, BPD-DIA-HE 1) conjugated to a cathepsin-cleavable quenched fluorescent probe. The precomplexed conjugate:IgE mixture was incubated at 37 degrees Celsius for 30 minutes. Media from HepG2 was removed, and conjugate:IgE mixture in EMEM was added to cells for 2 hours. Cells were then placed on ice to prevent trafficking/recycling during wash steps, and washed once with DPBS, once with sodium acetate buffer (20 mM, 150 mM NaCl, pH 5.2), once with Earle's Balanced Salt Solution (EBSS) adjusted to pH 2.5, and once again with DPBS, to remove conjugate from media and cell surface. Afterwards, 100 ul of prewarmed (to 37 degrees Celsius) EMEM with cathepsin-cleavable quenched fluorescent probe-conjugated IgE was added to cells for 4 hours before washing with DPBS and detaching with 0.25% Trypsin/EDTA. Cells were pelleted in 96-well conical bottom plates, washed once with FACS Buffer with BSA (Rockland Immunochemicals), resuspended FACS Buffer with BSA and median 488 and 647 intensity was analyzed by flow cytometry. Delivery of labelled IgE to the lysosome and subsequent cleavage of initial precomplexed IgE was measured by analyzing median cellular 647 intensity, while cleavage of the post wash addition of IgE, which should only be degraded by recycling conjugates which released the first round of precomplexed IgE, was analyzed by median cellular 488 intensity. HepG2 cells were treated with human IgE (Enzo Life Sciences, BPD-DIA-HE1) conjugated to a cathepsin-cleavable quenched deep red (647) fluorescent probe precomplexed to conjugate fortwo hours, then washed, and fresh media with IgE conjugated to a green (488) cathepsin-cleavable fluorescent probe was then added without conjugate. […] Fluorescence values were measured by FACS and normalized to unconjugated parent protein. Reported values are the average of the values of two replicate wells.

recombinant IgE = test: Degradation of super-stoichiometric levels of target in HepG2 cells (Example 13, Table 31); details: 1 nM conjugate and 25 nM IgE for three days, (A-B)/C IgE depleted relative to conjugate, average of two replicate wells
Description: as §1
For evaluation of compounds in a high throughput format, 25,000 HepG2 cells were plated in a 96-well plate. The following day, 50 ul of 1 nM conjugate and 25 nM recombinant IgE in EMEM were added to the cells. 50 ul of the initial stock of conjugate:IgE was saved to quantify for an initial time point. Three days later, the media was collected from cells, and both initial and 72 hour time points were quantified for IgE concentration using the MSD assay.
HepG2 cells were incubated in media containing 1 nM conjugate and 25 nM IgE for three days. Concentrations of IgE at beginning and end of experiment were quantified by ELISA-based assay. Molar equivalents of IgE depleted relative to conjugate added are shown, calculated as (A-B)/C, where A is the initial concentration of IgE, B is the concentration of IgE at day three, and C is the concentration of conjugate. Reported values are the average of the values of two replicate wells.

SMILES	Normalized Fluorescence 3.7 nM WT [1]	Normalized Fluorescence 100 nM WT [1]	Normalized Fluorescence 100 nM ASGPR KO [2]	Normalized Fluorescence 3.7 nM [3]	Normalized Fluorescence 100 nM [3]	Normalized Fluorescence (HepG2 cells)	Normalized Fluorescence Post Wash Median Green (human IgE)	Normalized Fluorescence Precomplex Median Deep Red (human IgE)	Average Degradation (Molar equivalents) (recombinant IgE)
COC[C@H]1OC[C@H](Nc2nc(OCCOCCOCCNC(=O)NCCCC(CCCNC(=O)NCCOCCOCCOc3cc(C(F)(F)F)nc(N[C@H]4CO[C@H](COC)[C@H](O)[C@@H]4O)n3)(CCCNC(=O)NCCOCCOCCOc3cc(C(F)(F)F)nc(N[C@H]4CO[C@H](COC)[C@H](O)[C@@H]4O)n3)NC(=O)CCOCCOCCOCCNS(=O)(=O)c3ccc(N4C(=O)C=CC4=O)cc3)cc(C(F)(F)F)n2)[C@@H](O)[C@H]1O [Compound 2309]	38.9	201.6	1.1	6.7	3.1	27.1	2.5	3.0	4.1
O=C(CCOCCOCCOCCNS(=O)(=O)c1ccc(N2C(=O)C=CC2=O)cc1)NC(CCCNC(=O)NCCOCCOCCOCc1csc(N[C@H]2CO[C@H](CO)[C@H](O)[C@@H]2O)n1)(CCCNC(=O)NCCOCCOCCOCc1csc(N[C@H]2CO[C@H](CO)[C@H](O)[C@@H]2O)n1)CCCNC(=O)NCCOCCOCCOCc1csc(N[C@H]2CO[C@H](CO)[C@H](O)[C@@H]2O)n1 [Compound 2310]	30.3	127.9	1.1	4.3	2.4	16.6	2.0	2.3	4.0
O=C(CCOCCOCCOCCNS(=O)(=O)c1ccc(N2C(=O)C=CC2=O)cc1)NC(CCCNC(=O)NCCOCCOCCCc1ccnc(N[C@H]2CO[C@H](CO)[C@H](O)[C@@H]2O)n1)(CCCNC(=O)NCCOCCOCCCc1ccnc(N[C@H]2CO[C@H](CO)[C@H](O)[C@@H]2O)n1)CCCNC(=O)NCCOCCOCCCc1ccnc(N[C@H]2CO[C@H](CO)[C@H](O)[C@@H]2O)n1 [Compound 2311]	22.6	92.9	1.1	2.2	2.2	11.6	1.7	2.0	0.5
CN1CCN(C[C@H]2OC[C@H](Nc3nc(OCCOCCOCCNC(=O)NCCCC(CCCNC(=O)NCCOCCOCCOc4cc(C(F)(F)F)nc(N[C@H]5CO[C@H](CN6CCN(C)CC6)[C@H](O)[C@@H]5O)n4)(CCCNC(=O)NCCOCCOCCOc4cc(C(F)(F)F)nc(N[C@H]5CO[C@H](CN6CCN(C)CC6)[C@H](O)[C@@H]5O)n4)NC(=O)CCOCCOCCOCCNS(=O)(=O)c4ccc(N5C(=O)C=CC5=O)cc4)cc(C(F)(F)F)n3)[C@@H](O)[C@H]2O)CC1 [Compound 2312]	64.9	242.9	1.0	11.1	4.2	44.5	3.0	3.5	4.1
CC(=O)N[C@@H]1[C@@H](O)[C@@H](O)[C@@H](CO)O[C@@H]1CCCOCCOCCNC(=O)NCCCC(CCCNC(=O)NCCOCCOCCC[C@H]1O[C@H](CO)[C@H](O)[C@H](O)[C@H]1NC(C)=O)(CCCNC(=O)NCCOCCOCCC[C@H]1O[C@H](CO)[C@H](O)[C@H](O)[C@H]1NC(C)=O)NC(=O)NCOCCOCCOCCNS(=O)(=O)c1ccc(N2C(=O)C=CC2=O)cc1 [Compound 2313]	89.1	259.1	1.0	13.0	4.1	36.4	3.2	3.5	7.5
